Measurements published in the NIST ThermoML archive (doi:10.1021/acs.jced.7b00035).
Where “and” joins values, the source holds several entries; their conditions need not be identical. Equal values may be shown once.

Legend:
[1] = xn = mol fraction of the nth substance listed; settings: 100 kPa, Liquid, Vibrating tube method
[2] = excess molar enthalpy (molar enthalpy of mixing); xn = mol fraction of the nth substance listed; settings: 100 kPa, Liquid, Flow calorimetry

CCC(=O)CC [pentan-3-one] + O
Settings	excess molar enthalpy, [2] [kcal/mol]	mass density, [1] [kg/m3]
288.15 K, x1 = 0.000848	-0.00261	998.595
288.15 K, x1 = 0.000849	-0.00264	998.589
288.15 K, x1 = 0.001695	-0.00514	998.107
288.15 K, x1 = 0.001696	-0.0052	998.104
288.15 K, x1 = 0.00254	-0.00771	997.609
288.15 K, x1 = 0.002542	-0.00769	997.616
288.15 K, x1 = 0.003385	-0.0102	997.144
288.15 K, x1 = 0.003386	-0.0102	997.139
288.15 K, x1 = 0.004227	-0.0127	996.667
288.15 K, x1 = 0.004229	-0.0126	996.682
288.15 K, x1 = 0.005069	-0.015	996.228
288.15 K, x1 = 0.005071	-0.015	996.221
298.15 K, x1 = 0.000847	-0.00214	996.504
298.15 K, x1 = 0.001693	-0.00429	995.96
298.15 K, x1 = 0.001694	-0.00426	995.958
298.15 K, x1 = 0.002537	-0.00626	995.458
298.15 K, x1 = 0.002539	-0.0063	995.442
298.15 K, x1 = 0.00338	-0.00823	994.944
298.15 K, x1 = 0.003383	-0.0083	994.931
298.15 K, x1 = 0.004222	-0.0103	994.42
298.15 K, x1 = 0.004225	-0.0103	994.423
298.15 K, x1 = 0.005064	-0.0123	993.924
298.15 K, x1 = 0.005066	-0.0123	993.902
308.15 K, x1 = 0.000848	-0.00167	993.46
308.15 K, x1 = 0.000849	-0.00169	993.449
308.15 K, x1 = 0.001695	-0.00332	992.887
308.15 K, x1 = 0.001696	-0.00332	992.873
308.15 K, x1 = 0.00254	-0.00493	992.322
308.15 K, x1 = 0.002543	-0.00497	992.311
308.15 K, x1 = 0.003384	-0.00646	991.77
308.15 K, x1 = 0.003387	-0.00641	991.774
308.15 K, x1 = 0.004226	-0.00797	991.241
308.15 K, x1 = 0.004231	-0.00798	991.216
308.15 K, x1 = 0.005069	-0.00955	990.666
308.15 K, x1 = 0.005074	-0.00957	990.66
318.15 K, x1 = 0.000849	-0.00121	989.61
318.15 K, x1 = 0.00085	-0.00122	989.603
318.15 K, x1 = 0.001697	-0.00241	989.005
318.15 K, x1 = 0.001698	-0.00241	988.992
318.15 K, x1 = 0.002543	-0.00355	988.399
318.15 K, x1 = 0.002544	-0.00357	988.396
318.15 K, x1 = 0.003388	-0.00462	987.821
318.15 K, x1 = 0.00339	-0.00467	987.82
318.15 K, x1 = 0.004231	-0.00576	987.229
318.15 K, x1 = 0.004233	-0.00573	987.234
318.15 K, x1 = 0.005073	-0.00678	986.636
318.15 K, x1 = 0.005076	-0.00682	986.636

CCCC(C)=O [pentan-2-one] + O
Settings	excess molar enthalpy, [2]	mass density, [1]
288.15 K, x1 = 0.000842	-0.00254 kcal/mol and -0.00255 kcal/mol	998.562 kg/m3 and 998.56 kg/m3
288.15 K, x1 = 0.001683	-0.00506 kcal/mol	998.027 kg/m3 and 998.026 kg/m3
288.15 K, x1 = 0.002522	-0.00753 kcal/mol and -0.00751 kcal/mol	997.512 kg/m3 and 997.513 kg/m3
288.15 K, x1 = 0.00336	-0.00987 kcal/mol	997.021 kg/m3
288.15 K, x1 = 0.003361	-0.00991 kcal/mol	997.002 kg/m3
288.15 K, x1 = 0.004197	-0.0122 kcal/mol	996.522 kg/m3
288.15 K, x1 = 0.004198	-0.0123 kcal/mol	996.499 kg/m3
288.15 K, x1 = 0.005032	-0.0146 kcal/mol	996.016 kg/m3
288.15 K, x1 = 0.005035	-0.0146 kcal/mol	996.015 kg/m3
298.15 K, x1 = 0.000841	-0.00207 kcal/mol	996.472 kg/m3
298.15 K, x1 = 0.000842	-0.00207 kcal/mol	996.472 kg/m3
298.15 K, x1 = 0.001681	-0.00411 kcal/mol	995.903 kg/m3
298.15 K, x1 = 0.001682	-0.00412 kcal/mol	995.902 kg/m3
298.15 K, x1 = 0.00252	-0.00613 kcal/mol	995.346 kg/m3
298.15 K, x1 = 0.002521	-0.00617 kcal/mol	995.334 kg/m3
298.15 K, x1 = 0.003357	-0.00809 kcal/mol	994.797 kg/m3
298.15 K, x1 = 0.003358	-0.008 kcal/mol	994.811 kg/m3
298.15 K, x1 = 0.004193	-0.00999 kcal/mol and -0.00995 kcal/mol	994.25 kg/m3 and 994.26 kg/m3
298.15 K, x1 = 0.005028	-0.0119 kcal/mol	993.716 kg/m3
298.15 K, x1 = 0.005029	-0.0119 kcal/mol	993.707 kg/m3
308.15 K, x1 = 0.000841	-0.00163 kcal/mol	–
308.15 K, x1 = 0.000842	-0.00164 kcal/mol	993.42 kg/m3
308.15 K, x1 = 0.001681	-0.00322 kcal/mol	992.814 kg/m3
308.15 K, x1 = 0.001683	-0.00322 kcal/mol	992.818 kg/m3
308.15 K, x1 = 0.00252	-0.00476 kcal/mol	992.226 kg/m3
308.15 K, x1 = 0.002522	-0.00473 kcal/mol	992.228 kg/m3
308.15 K, x1 = 0.003358	-0.00626 kcal/mol	991.617 kg/m3
308.15 K, x1 = 0.00336	-0.00623 kcal/mol	991.643 kg/m3
308.15 K, x1 = 0.004194	-0.00773 kcal/mol	991.052 kg/m3
308.15 K, x1 = 0.004197	-0.00775 kcal/mol	991.045 kg/m3
308.15 K, x1 = 0.005031	-0.00918 kcal/mol	990.475 kg/m3
308.15 K, x1 = 0.005034	-0.00916 kcal/mol	990.474 kg/m3
318.15 K, x1 = 0.00084	-0.00118 kcal/mol	989.57 kg/m3
318.15 K, x1 = 0.001679	-0.00232 kcal/mol	988.929 kg/m3
318.15 K, x1 = 0.002517	-0.00341 kcal/mol	988.307 kg/m3
318.15 K, x1 = 0.003354	-0.0045 kcal/mol	987.666 kg/m3
318.15 K, x1 = 0.004189	-0.00553 kcal/mol	987.058 kg/m3
318.15 K, x1 = 0.005024	-0.0065 kcal/mol	986.447 kg/m3
